In this assay the target is T1, hNaV1.7 (Homo sapiens, UniProt Q15858).
T1 construct: expressed in transfected cells
Description: Patch voltage clamp electrophysiology (EP), Syncropatch 384PE, Nav1.7 in CHO cells.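 Note: Nav1.7 stably expressed from cDNA in CHO cells, holding potential of −50 mV kept for the entire experiment.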 Format: cell-based. The conditions noted are these: holding potential −50 mV, inhibition based on 7.5 min compound incubation, read-out: hNaV1.7 EP_SP.

Structures can show the parent of a compound that is named as a salt.

T1 sequence (Q15858 1-1977 isoform Q15858-3): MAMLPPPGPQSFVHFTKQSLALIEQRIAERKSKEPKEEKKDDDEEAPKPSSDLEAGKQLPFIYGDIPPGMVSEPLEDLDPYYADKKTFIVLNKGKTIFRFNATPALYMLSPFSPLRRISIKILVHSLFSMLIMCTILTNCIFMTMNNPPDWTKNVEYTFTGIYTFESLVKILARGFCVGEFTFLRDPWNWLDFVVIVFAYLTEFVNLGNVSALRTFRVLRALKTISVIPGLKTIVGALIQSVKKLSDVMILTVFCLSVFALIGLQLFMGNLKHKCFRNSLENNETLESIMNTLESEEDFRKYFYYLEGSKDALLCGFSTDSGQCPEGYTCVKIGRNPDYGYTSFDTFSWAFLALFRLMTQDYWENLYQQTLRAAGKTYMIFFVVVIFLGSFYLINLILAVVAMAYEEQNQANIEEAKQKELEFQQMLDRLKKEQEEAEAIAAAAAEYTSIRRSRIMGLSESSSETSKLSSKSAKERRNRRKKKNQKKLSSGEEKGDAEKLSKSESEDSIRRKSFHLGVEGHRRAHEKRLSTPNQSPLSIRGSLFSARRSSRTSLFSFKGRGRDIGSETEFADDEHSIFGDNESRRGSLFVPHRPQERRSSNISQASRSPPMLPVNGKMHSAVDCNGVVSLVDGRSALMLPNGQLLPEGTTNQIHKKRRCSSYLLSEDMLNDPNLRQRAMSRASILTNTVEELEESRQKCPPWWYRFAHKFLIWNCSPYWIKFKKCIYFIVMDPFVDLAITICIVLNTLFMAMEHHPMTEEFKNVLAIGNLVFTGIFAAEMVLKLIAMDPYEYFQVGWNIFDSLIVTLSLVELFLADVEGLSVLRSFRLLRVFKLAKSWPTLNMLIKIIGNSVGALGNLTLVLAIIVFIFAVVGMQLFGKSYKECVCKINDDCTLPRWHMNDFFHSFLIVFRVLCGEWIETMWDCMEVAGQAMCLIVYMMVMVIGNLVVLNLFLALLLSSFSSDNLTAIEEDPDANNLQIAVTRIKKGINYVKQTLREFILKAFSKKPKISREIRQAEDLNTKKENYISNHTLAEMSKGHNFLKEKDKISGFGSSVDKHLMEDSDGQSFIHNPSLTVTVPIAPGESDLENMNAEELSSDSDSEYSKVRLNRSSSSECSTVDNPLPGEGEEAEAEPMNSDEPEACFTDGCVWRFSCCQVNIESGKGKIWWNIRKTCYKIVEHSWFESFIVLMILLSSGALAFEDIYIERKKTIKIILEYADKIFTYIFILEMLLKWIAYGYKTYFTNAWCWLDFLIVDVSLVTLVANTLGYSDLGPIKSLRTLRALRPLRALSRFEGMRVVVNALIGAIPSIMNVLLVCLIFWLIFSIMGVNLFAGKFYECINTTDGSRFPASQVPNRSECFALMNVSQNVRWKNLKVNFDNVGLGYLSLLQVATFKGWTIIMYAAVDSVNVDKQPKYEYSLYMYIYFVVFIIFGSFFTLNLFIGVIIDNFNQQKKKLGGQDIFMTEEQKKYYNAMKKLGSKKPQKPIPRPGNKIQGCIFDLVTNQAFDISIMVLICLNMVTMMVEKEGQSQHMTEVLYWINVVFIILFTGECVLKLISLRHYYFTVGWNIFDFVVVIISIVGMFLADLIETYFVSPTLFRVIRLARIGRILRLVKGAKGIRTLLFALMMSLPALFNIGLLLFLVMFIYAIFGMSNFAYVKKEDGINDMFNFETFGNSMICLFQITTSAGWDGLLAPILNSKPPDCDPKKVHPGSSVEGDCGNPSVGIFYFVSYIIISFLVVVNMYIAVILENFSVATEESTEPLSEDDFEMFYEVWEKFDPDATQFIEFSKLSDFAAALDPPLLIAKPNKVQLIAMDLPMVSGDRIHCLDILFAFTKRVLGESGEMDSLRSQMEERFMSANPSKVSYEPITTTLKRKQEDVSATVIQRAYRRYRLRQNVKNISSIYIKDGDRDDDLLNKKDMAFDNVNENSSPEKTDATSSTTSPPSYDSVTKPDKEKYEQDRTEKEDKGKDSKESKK

`COc1ccc2nc(NS(=O)(=O)c3ccc(N[C@H]4CCCC[C@@H]4N(C)C)cc3F)sc2c1` [Example 201, 4-(((1S,2S)-2-(dimethylamino)cyclohexyl)amino)-2-fluoro-N-(6-methoxybenzo[d]thiazol-2-yl)benzenesulfonamide]: the IC50 was determined as 0.37 µM. As for `N#Cc1ccc(S(=O)(=O)NC(=O)c2cc(Cl)c(OCC3CCCC3)cc2F)cc1C(F)(F)F` [Example 280, 5-chloro-N-((4-cyano-3-(trifluoromethyl)phenyl)sulfonyl)-4-(cyclopentylmethoxy)-2-fluorobenzamide], the IC50 is 0.71 µM. For `O=C(NS(=O)(=O)Cc1cccc(F)c1F)c1cc(Cl)c(OCC2CCCC2)cc1F` [Example 268, 5-chloro-4-(cyclopentylmethoxy)-N-((2,3-difluorobenzyl)sulfonyl)-2-fluorobenzamide] the value was 0.088 µM; for `CN(C)[C@H]1CCCC[C@@H]1Nc1cc(F)c(S(=O)(=O)Nc2nc3ccc(OCC4CCCC4)cc3s2)cc1Cl` [Example 202, 5-chloro-N-(6-(cyclopentylmethoxy)benzo[d]thiazol-2-yl)-4-(((1S,2S)-2-(dimethylamino)cyclohexyl)amino)-2-fluorobenzenesulfonamide], 0.022 µM.

Regarding `COC[C@@H](C)S(=O)(=O)NC(=O)c1cc(Cl)c(OCC2CCCC2)cc1F` (single isomer, unassigned) [Example 249], the IC50 was 0.11 µM. For the compound `O=C(NS(=O)(=O)c1ccc(OCC2CCCN2)cc1)c1cc(Cl)c(OCC2CCCC2)cc1F` (centres unmarked) [Example 305, 5-chloro-4-(cyclopentylmethoxy)-2-fluoro-N-((4-(pyrrolidin-2-ylmethoxy)phenyl)sulfonyl)benzamide], the IC50 was 0.36 µM. On to `COc1cccc(COc2ccc(S(=O)(=O)NC(=O)c3cc(Cl)c(OCC4CCCC4)cc3F)cc2)c1` [Example 308, 5-chloro-4-(cyclopentylmethoxy)-2-fluoro-N-((4-((3-methoxybenzyl)oxy)phenyl)sulfonyl)benzamide], for which the IC50 was 0.1 µM.

Take `CC[C@H](C)S(=O)(=O)NC(=O)c1cc(Cl)c(OCC2CCCC2)cc1F` (single isomer, unassigned) [Example 254]: the IC50 came to 0.014 µM. Take `O=C(NS(=O)(=O)c1ccc(OCc2ccccc2)cc1F)c1cc(C2CC2)c(OCC2CCCC2)cc1F` [Example 70, N-((4-(benzyloxy)-2-fluorophenyl)sulfonyl)-4-(cyclopentylmethoxy)-5-cyclopropyl-2-fluorobenzamide]: the IC50 came out at 0.06 µM. Consider `NCC1CN(S(=O)(=O)NC(=O)c2cc(C3CC3)c(OCC3CCCC3)cc2F)CCO1` (centres unmarked) [Example 330, N-((2-(aminomethyl)morpholino)sulfonyl)-4-(cyclopentylmethoxy)-5-cyclopropyl-2-fluorobenzamide], for which the IC50 stood at 0.62 µM.

With `C[C@H]1CCCN1S(=O)(=O)NC(=O)c1cc(Cl)c(OCC2CCCC2)cc1F` (single isomer, unassigned) [Example 223], the IC50 was 0.039 µM. With `NC[C@H]1CCCN(S(=O)(=O)NC(=O)c2cc(Cl)c(OCC3CCCC3)cc2F)C1` (single isomer, unassigned) [Example 27, 2,2,2-trifluoroacetate], the IC50 is 0.09 µM. For `CCOc1ccc(S(=O)(=O)NC(=O)c2cc(Cl)c(OCC3CCCC3)cc2F)cn1` [Example 285, 5-chloro-4-(cyclopentylmethoxy)-N-((6-ethoxypyridin-3-yl)sulfonyl)-2-fluorobenzamide] the value was 0.35 µM.

`O=C(NS(=O)(=O)c1ccccc1)c1cc(Cl)c(OCC2CCCC2)cc1F` [Example 78, 5-chloro-4-(cyclopentylmethoxy)-2-fluoro-N-(phenylsulfonyl)benzamide]: the IC50 was 0.1 µM. With `Cn1cncc1COc1ccc(S(=O)(=O)NC(=O)c2cc(Cl)c(OCC3CCCC3)cc2F)cc1` [Example 316, 5-chloro-4-(cyclopentylmethoxy)-2-fluoro-N-((4-((1-methyl-1H-imidazol-5-yl)methoxy)phenyl)sulfonyl)benzamide], the IC50 was 0.028 µM. For `CN1CC(OC2CCN(S(=O)(=O)NC(=O)c3cc(Cl)c(Oc4ccc(Cl)c(C(F)(F)F)c4)cc3F)CC2)C1` [Example 239, 5-chloro-4-(4-chloro-3-(trifluoromethyl)phenoxy)-2-fluoro-N-((4-((1-methylazetidin-3-yl)oxy)piperidin-1-yl)sulfonyl)benzamide] the value was 0.025 µM.

On to `NC1CN(S(=O)(=O)NC(=O)c2cc(Cl)c(OCC3CCCC3)cc2F)C1` [Example 233, N-((3-aminoazetidin-1-yl)sulfonyl)-5-chloro-4-(cyclopentylmethoxy)-2-fluorobenzamide], for which the IC50 was 0.87 µM.

In the case of `COC[C@H](C)S(=O)(=O)NC(=O)c1cc(Cl)c(OCC2CCCC2)cc1F` (single isomer, unassigned) [Example 248], the IC50 was determined as 0.76 µM. With `O=C(NS(=O)(=O)c1ccc2c(c1)CCO2)c1cc(Cl)c(OCC2CCCC2)cc1F` [Example 271, 5-chloro-4-(cyclopentylmethoxy)-N-((2,3-dihydrobenzofuran-5-yl)sulfonyl)-2-fluorobenzamide], the IC50 was 0.26 µM.

Regarding `CC(C)/C=C/c1cc2cnc(NS(=O)(=O)c3cc(Cl)c(N[C@H]4CCCC[C@@H]4N(C)C)cc3F)cc2n1C` [Example 102, 5-chloro-4-(((1S,2S)-2-(dimethylamino)cyclohexyl)amino)-2-fluoro-N-(1-methyl-2-((E)-3-methylbut-1-en-1-yl)-1H-pyrrolo[3,2-c]pyridin-6-yl)benzenesulfonamide], the IC50 worked out at 0.65 µM. For `NCCCOc1ccc(S(=O)(=O)NC(=O)c2cc(Cl)c(OCC3CCCC3)cc2F)cc1` [Example 314, N-((4-(3-aminopropoxy)phenyl)sulfonyl)-5-chloro-4-(cyclopentylmethoxy)-2-fluorobenzamide] the value was 0.31 µM; for `CN1CC(OC2CCN(S(=O)(=O)NC(=O)c3cc(Cl)c(OCC4CCCC4)cc3F)CC2)C1` [Example 1, 5-chloro-4-(cyclopentylmethoxy)-2-fluoro-N-((4-((1-methylazetidin-3-yl)oxy)piperidin-1-yl)sulfonyl)benzamide], 0.11 µM. As for `COc1ccc(COc2ccc(S(=O)(=O)NC(=O)c3cc(Cl)c(OCC4CCCC4)cc3F)cc2)cc1` [Example 309, 5-chloro-4-(cyclopentylmethoxy)-2-fluoro-N-((4-((4-methoxybenzyl)oxy)phenyl)sulfonyl)benzamide], the IC50 turned out to be 0.12 µM. The figure for `C[C@H]1CCCCN1S(=O)(=O)NC(=O)c1cc(Cl)c(OCC2CCCC2)cc1F` (single isomer, unassigned) [Example 224] is 0.04 µM; for `O=C(NS(=O)(=O)N1CCCc2cccnc21)c1cc(Cl)c(OCC2CCCC2)cc1F` [Example 15, 5-chloro-4-(cyclopentylmethoxy)-N-((3,4-dihydro-1,8-naphthyridin-1(2H)-yl)sulfonyl)-2-fluorobenzamide] it is 0.11 µM. Take `CN1CC(OC2CCN(S(=O)(=O)NC(=O)c3cc(C4CC4)c(OCC4CCCC4)cc3F)CC2)C1` [Example 4, 4-(cyclopentylmethoxy)-5-cyclopropyl-2-fluoro-N-((4-((1-methylazetidin-3-yl)oxy)piperidin-1-yl)sulfonyl) benzamide]: the IC50 was 0.015 µM.

As to `C[C@@H]1C[C@H]1S(=O)(=O)NC(=O)c1cc(Cl)c(OCC2CCCC2)cc1F` (single isomer, unassigned) [Example 251], the IC50 was 0.016 µM. As for `O=C(NS(=O)(=O)c1ccc(OCc2ccccc2)cc1)c1cc(C2CC2)c(OCC2CCCC2)cc1F` [Example 83, N-((4-(benzyloxy)phenyl)sulfonyl)-4-(cyclopentylmethoxy)-5-cyclopropyl-2-fluorobenzamide], the IC50 was 0.092 µM.

As for `O=C(NS(=O)(=O)N1CCc2ccccc2C1)c1cc(Cl)c(OCC2CCCC2)cc1F` [Example 19, 5-chloro-4-(cyclopentylmethoxy)-N-((3,4-dihydroisoquinolin-2(1H)-yl)sulfonyl)-2-fluorobenzamide], the IC50 amounted to 0.31 µM. On to `O=C(NS(=O)(=O)N1CC[C@@H]2CN[C@@H]2C1)c1cc(Cl)c(OCC2CCCC2)cc1F` [Example 231, N-((1S,6R)-3,8-diazabicyclo[4.2.0]octan-3-ylsulfonyl)-5-chloro-4-(cyclopentylmethoxy)-2-fluorobenzamide 2,2,2-trifluoroacetate], for which the IC50 was 0.43 µM. The figure for `O=C(NS(=O)(=O)c1c(F)cc(N2CCCCC2)cc1F)c1cc(Cl)c(OCC2CCCC2)cc1F` [Example 58, 5-chloro-4-(cyclopentylmethoxy)-N-((2,6-difluoro-4-(piperidin-1-yl)phenyl)-sulfonyl)-2-fluorobenzamide] is 0.32 µM; for `CN(C)[C@H]1CCCC[C@@H]1Oc1ccc(S(=O)(=O)NC(=O)c2cc(C3CC3)c(OCC3CCCC3)cc2F)c(F)c1` [Example 65, 4-(cyclopentylmethoxy)-5-cyclopropyl-N-((4-(((1S,2S)-2-(dimethylamino)cyclohexyl)oxy)-2-fluorophenyl)sulfonyl)-2-fluorobenzamide] it is 0.025 µM.

Take `O=C(NS(=O)(=O)c1cnn(-c2ccccc2F)c1)c1cc(Cl)c(OCC2CCCC2)cc1F` [Example 269, 5-chloro-4-(cyclopentylmethoxy)-2-fluoro-N-((1-(2-fluorophenyl)-1H-pyrazol-4-yl)sulfonyl)benzamide]: the IC50 came out at 0.94 µM.

Turning to `CN(C)[C@H]1CCCC[C@@H]1Nc1ccc(S(=O)(=O)Nc2nc3ccc(OCC4CCCC4)cc3s2)c(F)c1` [Example 96, N-(6-(cyclopentylmethoxy)benzo[d]thiazol-2-yl)-4-(((1S,2S)-2-(dimethyl-amino)cyclohexyl)-amino)-2-fluorobenzenesulfonamide formate], the IC50 was 0.0088 µM.

On to `CN(C)[C@H]1CCCC[C@@H]1Nc1cc(F)c(S(=O)(=O)Nc2ccc(OCCC3(C(F)(F)F)CC3)cn2)cc1Cl` [Example 101, 5-chloro-4-(((1S,2S)-2-(dimethylamino)cyclohexyl)amino)-2-fluoro-N-(5-(2-(1-(trifluoromethyl)cyclopropyl)ethoxy)pyridin-2-yl)benzenesulfonamide], for which the IC50 is 0.48 µM.

(Values after patent publication US20240228463A1, “SODIUM CHANNEL INHIBITORS AND METHODS OF DESIGNING SAME” (Genentech, Inc., priority 2021, published 2024).)
